# From patent US20210268030A1, “FIBROADIPOGENIC PROGENITOR-DERIVED EXOSOMES FOR REGENERATION OF DYSTROPHIC MUSCLES” (EXOFIX S.R.L., priority 2018, published 2021)
# Columns and labels:
# MuSCs [1] = experiment: Transwell co-culture of FAPs with MuSCs, myogenic differentiation (fusion index); format: cell-based, mdx mice; conditions: FAPs exposed to GW4869 (10 uM) before transwell co-culture
# Method: MuSCs and FAP cells were co-cultured by using inserts with 1.0 μm porous membrane to avoid direct contact between populations.
# Cell culture inserts with 1.0-·m pore (#353102, #353104, Falcon) and 6 or 24 -well culture plates (BD Bioscience) were used for transwell co-culture. Freshly sorted MuSCs were plated in the bottom of the plate, while FAP cells were plated on the upper insert.
# To decrease FAP-exosomes release, GW4869 (10 uM, #D1692, Sigma) was added to FAPs culture 30′ before the co-culture setting with MuSCs. To wash away any residual trace of GW4869, FAPs media was refreshed right before co-culture.
# For Drosha SiRNA treatments, in vivo TSA treated FAPs on transwell were transfected with commercially available Drosha siRNA using Dharmafect3.0 (Dharmacon) according to manufacturer instructions; after 6 hours FAPs were put in co-culture with MuSCs.
# We began to determine the identity of the extracellular mediators of FAP's support to MuSCs in DMD muscles, by performing transwell co-cultures between FAPs isolated from 1.5 month old mdx mice and MuSCs isolated from age-matched mdx mice. In transwell cultures, cells are separated by a membrane of 1 μm pore size that prevents direct cell contact, yet allows reciprocal transfer of soluble mediators of functional interactions between co-cultured cells.
# MuSCs [2] = experiment: PKH-67 tracing of exosome transfer from FAPs to MuSCs in transwell co-culture; format: cell-based, mdx mice; conditions: PKH67-labelled FAPs exposed to GW4869
# Method: To stain FAPs derived exosomes, FAP cells were incubated with the lipidic dye PKH-67 (#P7333, Sigma) according to manufacturer instructions prior to transwell co-culture with MuSCs.
# To analyse the capacity of MuSCs to uptake FAP-derived exosomes, we performed a transwell co-culture in which the potential “source” of exosomes—FAPs—was […] prior to transwell co-culture with the “acceptor” cells—MuSCs. […] PKH-67 is incorporated into newly generated exosomes, and therefore traces their passage to acceptor cells.
# [3] = tested on: MuSCs within single fibres; experiment: Single muscle fibres incubated with FAP conditioned media or exosomes (Pax7, MyoD, EdU); format: cell-based, C57BL6J-WT mice
# Method: Single fibers were isolated using Pasut (2013) and Moyle's protocol (2014) from tibialis anterior, extensor digitorum longus, gastrocnemius and soleus muscles of C57BL6J-WT mice and cultured in proliferating medium (GM1: DMEM+pyruvate+4.5 g/l glucose+glutamate, 10% horse serum (HS), 0.5% Chicken Embryo Extract) for 24 hours, then exposed for the next 24 hrs to GM1 conditioned media derived from culture of FAPs (MEDIA-FAPs) isolated from young mdx mouse treated for 15 days with vehicle (CTR) or mdx mice treated with TSA (TSA) or media isolated from FAPs CTR and TSA pre-treated with the GW4869 to inhibit exosome biogenesis. In a parallel, independent experiment, single fibers were exposed to exosomes (EXO-FAPs) purified from MEDIA-FAPs and added to GM1 for 24 hours.
# In ex-vivo experiments FAP-derived Exosomes (10·g) isolated by TEIR were put in culture with MuSCs or with myofibers in the cell culture media.
# To investigate this hypothesis, we evaluated the effect of FAP-derived exosomes from HDACi-treated or control-treated mdx mice on MuSCs within single fibres isolated from WT mice. Freshly isolated single muscle fibres from tibialis anterior, extensor digitorum longus, gastrocnemius and soleus of C57BL6J mice were incubated with FAP-derived exosomes or whole conditioned media, and their effect on MuSCs was evaluated by monitoring the expression of Pax7, MyoD and DNA synthesis (EdU incorporation). In this experimental setting, the uptake of FAP-derived exosomes by MuSCs from single fibers was first confirmed by staining of lipidic dye PKH-67 used on purified vesicles (FIG. 6B).
# [4] = tested on: animals affected by muscular dystrophy; conditions: in vivo; cited from earlier work
# muscles of DMD patients = conditions: phase I/II clinical trial, after one year of treatment; cited from earlier work
# preclinical model of DMD = conditions: Colussi et al. 2010; cited from earlier work
# [5] = supernatant of FAPs from control-treated mdx mice pre-exposed to GW4869
compound,measurement,setting,value
O=C(/C=C/c1ccc(/C=C/C(=O)Nc2ccc(C3=NCCN3)cc2)cc1)Nc1ccc(C2=NCCN2)cc1 [GW4869],FAP's ability to enhance MuSCs differentiation into multinucleated myotubes,MuSCs [1],abrogated
same,prevention of detection of the PKH-67 signal in MuSCs co-cultured with FAPs,MuSCs [2],more than 80%
same,ability of the whole supernatant to increase all MuSC populations as well as their proliferation,[3]; GW4869 treatment of FAPs from TSA-treated mdx mice,drastically reduced
same,number of Pax7+/MyoD+ MuSCs with high DNA synthesis (Edu+),[3]; [5],not altered
same,number of quiescent (Pax7+MyoD−) and differentiation-committed (Pax7- MyoD+) MuSCs,[3]; [5],drastic reduction
CCN(CC)Cc1ccc2cc(COC(=O)Nc3ccc(C(=O)NO)cc3)ccc2c1 [Givinostat],activity in the treatment of animals affected by muscular dystrophy,[4],active
same,histology of the muscles of DMD patients,muscles of DMD patients,positively affect
Nc1ccccc1NC(=O)c1ccc(CNC(=O)OCc2cccnc2)cc1 [MS-275],activity in the treatment of animals affected by muscular dystrophy,[4],active
O=C(CCCCCCC(=O)Nc1ccccc1)NO [Vorinostat],dose response curve,preclinical model of DMD,bell-shaped
same,activity in the treatment of animals affected by muscular dystrophy,[4],active
